Reference: patent publication US20110060000A1, “ACRIDINE ANALOGS IN THE TREATMENT OF GLIOMAS” (priority 2009, published 2011)
Entries after “also recorded” stand apart in the source; their conditions may differ. Read-outs that look alike come from different tables or passages of the source.

What was measured:
C6 cells = experiment: Cell viability / gliotoxicity in C6; format: cell-based; details: for C6 death relative to astrocytes: cytoplasmic exosaminidase; for inhibition of XTT conversion compared with astrocytes: C6, 24 hours of treatment
Protocol: (§1) Cells were treated for 48 hours accordingly to axis labels. At the end of the incubation time cells were prepared for the assay according to the manufacturer instructions. Luminescence values were then converted to % of survival.
(§2) Cells were treated for 48 h with the indicated concentrations of the agents. Astrocytes death was limited to 30% or lower. Suprisingly, C6 death was 3 folds higher than in astrocytes at 24 h and increased at 5 folds at 48 h. Data in U78-MG are similar to the C6 data although the effect was slightly lower but always at least 2 to 4 folds the effect seen in astrocytes.
(§3) In order to verify how the hypersensitivity of this signaling pathway in glioma cells affects the survival of the cells, viability assessments were performed using at least three unrelated biochemical tests. Initially, a commercially available kit (Cell Titer Glow) was used in the high throughput screening center for cytotoxicity screening. This test is amenable to high throughput screening techniques and, therefore, can be used for follow up of selected compounds in high or medium throughput settings. […] Since, THAP inhibits SERCA, an ATPase, and it can affect ATP levels directly the effect of THAP and TUN on these 3 cells types was also assessed using a commercially available kit that assesses metatetrazolium salts conversion (XTT). XTT assesses cell viability by probing mitochondrial integrity. […] Finally, viability of U87-MG was also assessed using a system measuring the activity of a house keeping cytosolic enzyme involved in glucose metabolism. Also using this detection system it was evident that glioma cells both C6 and U87-MG were greatly affected by induction of ERSR (FIG. 13). It is well known that prolonged ERSR leads to apoptosis, even in the presence of elevated GRP78 expression if that is coupled to significant protein unfolding. In rat cells this process is actuated via caspase 12 and ultimately via caspase 3 activation. Experiments were conducted in order to determine if the observed effect on cell viability was also paralleled by caspase 12 activation, and if there were differences, as indicated by preliminary viability data, between normal and glioma cells.

U87-MG cells = experiment: Cell viability / gliotoxicity in U87-MG; format: cell-based
Protocol: as §1, §2
as §3, with “Experiments were conducted in order to determine if the observed effect on cell viability was also paralleled by caspase 12 activation, and if there were differences, as indicated by preliminary viability data, between normal and glioma cells.” left out

GRP78 promoter = experiment: GRP78-luc reporter assay in stably transfected U87-MG clone A5; format: cell-based, human; details: for GRP78 promoter driven luciferase (GRP78-luc) expression: result in words
Protocol: The promoter region contains the sequence of the GRP78 promoter from −139 to +7. In this part of the promoter there are three ER stress responsive elements and the TATA box to which is linked in frame the firefly luciferase sequence.
Compounds were plated in half area 96 well plates at the final concentration of 2 μM in 5 μl of media. Cells were added in 45 μl afterwards at the density of 5000/well. Plates were read after 16 h in an Envision high efficiency plate reader. Results are represented as a plate layout in which different shadings indicate the different rows and the number indicate the different lines. As a standard negative and positive controls were located in the outer columns.
A construct coding a large part of the human GRP78 promoter, attached to the reporter gene firefly luciferase was used (see FIG. 16 for a schematic) (Yoshida et al., 1998).
The promoter region contains the sequence of the GRP78 promoter from −139 to +7. In this part of the promoter there are three ER stress responsive elements and the TATA box to which is linked in frame the firefly luciferase sequence (FIG. 16)(Yoshida et al., 1998). The construct, which was cloned in an expression vector, was transfected into E. Coli, amplified, purified and checked it by enzymatic digestion. Thereafter, C6 and U87-MG were transiently transfected with the plasmid. After 24 hours the cells were challenged with THAP and TUN for 24 hours. Although, in transient transfection only a small part of the cell population expresses the transduced gene, a significant induction by THAP and TUN was detected over 24 hours. Armed with these encouraging data human glioma cells U87-MG were transfected with both the above described construct and a construct carrying resistance to blasticidin. The sensitivity of these cells to the antibiotic has previously been assessed. 24 hours after the transfection the antibiotic at its 75% inhibitory concentration was added. The cells were given time to proliferate. Two pools called P2 and P5 were selected and luciferase expression was assessed. […] Clones from these two pools were isolated. Luciferase expression in the clones was characterized and a clone called A5, in which baseline expression of the construct was reasonably low and induction with two positive controls was large and consistent, was selected. This clone, several back up clones, and the pools were amplified and frozen in sufficient amounts to guarantee continuity in case needed. Next, the effect of the incubation time on luciferase induction was assessed. Since this assay can be affected by false negative due to toxicity of hit compounds, the incubation times were kept as short as possible. Therefore, several incubation times were tested, including 8, 16 and 24 h. The goal was not to incubate longer than 24 hours because toxicity starts to develop at that time point. […] At this time point the induction is about 6-7 fold. Previously, using a different assay, a half a million compound library was screened very easily using 2.5 thousands cells per well in 1536 plates. […] With this cell number the dynamic range is large and the fold of induction of 6-7 is maintained.
It is common practice in the field of high throughput screening to assess the so called z number of the assay. This statistical parameter indicates the suitability of a given assay for high throughput screening. The z-value in a word describes the likelihood of a single point hit not to be false positive. The z value is a number lower than or equal to one. Values above 0.5 indicate a robust assay. Values below 0.5 but above 0 indicate an assay that probably needs to be run in duplicate. Negative values indicate assays whose predictability is very low. Z values are usually determined in a high density format plate usually a 96 well plate in manual conditions or a 384-1536 plate format in automated liquid handling environment. Z value determination has been performed using half area 96 well plates in manual mode. […]

caspase 12 = experiment: Procaspase 12 cleavage in C6; format: cell-based, rat
Protocol: Cells were treated with the agents as indicated in the x axis. Subsequently cells were harvested and protein was extracted and then separated via SDS-PAGE and immunoblotted. The arrow highlights the 45 kDa band that results from cleavage of procaspase 12 and corresponding to the active caspase.
Thereafter, cells were harvested and protein extracted. Procaspase 12 band at 65 kDa was identified. In some of the treatments, the active product at 45 kDa was also detected. […] Conversely, in C6, higher GRP78 levels and the cell environment reflect significant caspase activation. […] Caspase activation in ERSR conditions was also confirmed with a TUNEL based apoptosis detection system in C6. C6 were treated with THAP for 24 hours and thereafter processed for TUNEL accordingly to manufacturer instructions. Staurosporin, a well known inducer of apoptosis in glial cells, was also included as a positive control. High resolution images of the experiments were acquired and image morphometric analysis was performed to determine quantitative parameters of the staining as previously described (Pascale et al., 2004, “Translocation of protein kinase C-betaII in astrocytes requires organized actin cytoskeleton and is not accompanied by synchronous RACK1 relocation.” Glia 46(2): 169-82). […]

[1] = same concentration range as GRP78-luc increase

Row | Compound | cytotoxicity compared with astrocytes (Cell Titer Glow, ATP content) (C6 cells) | C6 death relative to astrocytes (C6 cells; 24 h) [folds] | C6 death relative to astrocytes (C6 cells; 48 h) [folds] | inhibition of XTT conversion compared with astrocytes (C6 cells) | cytotoxicity compared with astrocytes (Cell Titer Glow, ATP content) (U87-MG cells) | GRP78 promoter driven luciferase (GRP78-luc) expression (GRP78 promoter) | activation of caspase 12 (45 kDa active product) in C6 (caspase 12) | gliotoxicity in C6 (C6 cells; [1]) | gliotoxicity in U87-MG (U87-MG cells; [1]) | concentration up to which GRP78-luc expression increased, after which the toxic effect was preponderant (GRP78 promoter) | hit in Prestwick library screening (value above average of negative controls + 3 SD) (GRP78 promoter; 2 μM, 5000 cells/well, read after 16 h) | cytotoxicity compared with astrocytes (Cell Titer Glow, ATP content) (C6 cells; C6, 48 hours) | cytotoxicity compared with astrocytes (Cell Titer Glow, ATP content) (U87-MG cells; U87-MG, 48 hours)
1 | C/C=C(/C)C(=O)O[C@H]1C(C)=C2[C@H]([C@@H]1OC(=O)CCCCCCC)[C@@](C)(OC(C)=O)C[C@H](OC(=O)CCC)[C@@]1(O)[C@H]2OC(=O)[C@@]1(C)O [THAP, thapsigargin] | significantly higher cytotoxicity | 3 | 5 | significantly higher inhibition of XTT conversion than astrocytes | significantly higher cytotoxicity | increase of luciferase expression; also recorded: concentration dependent increase | significant activation of caspase 12 | – | – | – | – | – | –
2 | CCN(CC)CCCC(C)Nc1c2ccc(Cl)cc2nc2ccc(OC)cc12 (stereo not drawn) [quinacrine] | – | – | – | – | – | – | – | killed very effectively | killed very effectively | up to 10 μM | potentially attractive lead compounds | – | –
3 | tunicamycin | – | 3 | 5 | significantly higher inhibition of XTT conversion than astrocytes | – | increase of luciferase expression; also recorded: concentration dependent increase | significant activation of caspase 12 | – | – | – | – | significantly higher cytotoxicity | significantly higher cytotoxicity
